Key:
[1] = molecular target: T1, Polyunsaturated fatty acid 5-lipoxygenase (Rattus norvegicus, UniProt P12527); assay: Inhibitory activity against 5-lipoxygenase catalysis (5-LO) in sonicated rat basophilic leukemia cell lysate; format: functional
T1 sequence (P12527 whole entry): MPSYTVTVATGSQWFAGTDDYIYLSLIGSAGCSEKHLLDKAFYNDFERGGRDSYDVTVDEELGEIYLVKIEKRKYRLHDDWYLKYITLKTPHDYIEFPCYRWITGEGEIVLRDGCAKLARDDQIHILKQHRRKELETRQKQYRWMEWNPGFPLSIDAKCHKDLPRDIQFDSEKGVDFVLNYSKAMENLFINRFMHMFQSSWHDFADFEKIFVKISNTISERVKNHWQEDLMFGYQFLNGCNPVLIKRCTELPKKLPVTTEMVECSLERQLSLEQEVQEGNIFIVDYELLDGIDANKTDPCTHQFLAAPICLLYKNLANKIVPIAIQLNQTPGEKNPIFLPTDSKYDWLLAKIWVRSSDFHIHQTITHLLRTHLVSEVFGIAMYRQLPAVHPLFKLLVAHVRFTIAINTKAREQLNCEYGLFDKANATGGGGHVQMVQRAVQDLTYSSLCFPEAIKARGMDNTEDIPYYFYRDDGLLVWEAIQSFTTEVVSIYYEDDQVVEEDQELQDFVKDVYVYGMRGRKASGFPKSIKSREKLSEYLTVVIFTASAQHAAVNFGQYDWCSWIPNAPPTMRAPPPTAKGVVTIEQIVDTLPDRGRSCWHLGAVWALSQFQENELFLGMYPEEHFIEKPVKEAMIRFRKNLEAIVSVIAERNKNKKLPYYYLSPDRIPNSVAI

[2] = molecular target: T2, Polyunsaturated fatty acid 5-lipoxygenase (Homo sapiens, UniProt P09917); assay: Inhibitory activity against 5-lipoxygenase in Human whole blood (HWBL) stimulated with calcium ionophore (A23187) and LTB4 measured by enzyme immunoassay; format: functional, tissue-based
T2 sequence (P09917 whole entry): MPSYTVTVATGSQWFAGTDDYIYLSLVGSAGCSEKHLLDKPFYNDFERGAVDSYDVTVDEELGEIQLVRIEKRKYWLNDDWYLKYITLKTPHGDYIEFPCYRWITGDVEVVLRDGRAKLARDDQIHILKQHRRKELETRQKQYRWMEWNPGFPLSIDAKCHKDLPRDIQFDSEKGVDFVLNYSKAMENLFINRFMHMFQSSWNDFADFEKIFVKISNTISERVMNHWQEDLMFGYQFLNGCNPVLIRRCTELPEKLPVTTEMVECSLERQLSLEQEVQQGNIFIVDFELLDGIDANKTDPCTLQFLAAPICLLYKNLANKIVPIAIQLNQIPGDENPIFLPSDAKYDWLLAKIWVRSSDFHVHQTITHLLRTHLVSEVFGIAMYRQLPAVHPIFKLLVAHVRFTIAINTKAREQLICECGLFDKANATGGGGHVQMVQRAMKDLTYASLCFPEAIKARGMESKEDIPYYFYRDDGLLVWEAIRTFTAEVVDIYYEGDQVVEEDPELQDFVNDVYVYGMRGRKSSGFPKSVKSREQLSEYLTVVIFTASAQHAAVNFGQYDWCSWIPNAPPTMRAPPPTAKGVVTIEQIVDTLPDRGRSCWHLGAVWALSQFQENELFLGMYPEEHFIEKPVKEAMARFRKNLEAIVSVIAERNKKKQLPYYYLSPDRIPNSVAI

[3] = molecular target: T3, Prostaglandin G/H synthase 2 (Homo sapiens) (UniProt P35354); assay: Inhibition activity against recombinant human Prostaglandin G/H synthase 2; design: concentration or dose not given beside the values; conditions: concentration not given here
T3 sequence (whole entry): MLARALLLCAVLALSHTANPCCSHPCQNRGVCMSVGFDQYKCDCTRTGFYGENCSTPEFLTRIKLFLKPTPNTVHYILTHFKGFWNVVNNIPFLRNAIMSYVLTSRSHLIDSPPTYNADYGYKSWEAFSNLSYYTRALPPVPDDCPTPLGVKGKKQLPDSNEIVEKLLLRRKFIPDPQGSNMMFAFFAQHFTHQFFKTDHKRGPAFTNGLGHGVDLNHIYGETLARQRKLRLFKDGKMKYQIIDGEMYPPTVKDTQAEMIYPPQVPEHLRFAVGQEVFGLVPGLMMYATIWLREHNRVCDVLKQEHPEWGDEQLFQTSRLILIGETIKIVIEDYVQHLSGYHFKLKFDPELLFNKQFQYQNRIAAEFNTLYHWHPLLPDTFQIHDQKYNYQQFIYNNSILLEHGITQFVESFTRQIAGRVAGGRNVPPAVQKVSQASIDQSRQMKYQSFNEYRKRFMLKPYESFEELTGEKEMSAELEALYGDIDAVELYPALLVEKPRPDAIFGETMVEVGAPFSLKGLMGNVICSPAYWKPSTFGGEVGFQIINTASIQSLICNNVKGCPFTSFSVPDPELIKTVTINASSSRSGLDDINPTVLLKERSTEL

[4] = molecular target: Prostaglandin G/H synthase 1 (Homo sapiens) (UniProt P23219); assay: Inhibition activity against recombinant human Prostaglandin G/H synthase 1; design: concentration or dose not given beside the values; conditions: concentration not given here
Sequence of Prostaglandin G/H synthase 1 (Homo sapiens) (P23219 whole entry): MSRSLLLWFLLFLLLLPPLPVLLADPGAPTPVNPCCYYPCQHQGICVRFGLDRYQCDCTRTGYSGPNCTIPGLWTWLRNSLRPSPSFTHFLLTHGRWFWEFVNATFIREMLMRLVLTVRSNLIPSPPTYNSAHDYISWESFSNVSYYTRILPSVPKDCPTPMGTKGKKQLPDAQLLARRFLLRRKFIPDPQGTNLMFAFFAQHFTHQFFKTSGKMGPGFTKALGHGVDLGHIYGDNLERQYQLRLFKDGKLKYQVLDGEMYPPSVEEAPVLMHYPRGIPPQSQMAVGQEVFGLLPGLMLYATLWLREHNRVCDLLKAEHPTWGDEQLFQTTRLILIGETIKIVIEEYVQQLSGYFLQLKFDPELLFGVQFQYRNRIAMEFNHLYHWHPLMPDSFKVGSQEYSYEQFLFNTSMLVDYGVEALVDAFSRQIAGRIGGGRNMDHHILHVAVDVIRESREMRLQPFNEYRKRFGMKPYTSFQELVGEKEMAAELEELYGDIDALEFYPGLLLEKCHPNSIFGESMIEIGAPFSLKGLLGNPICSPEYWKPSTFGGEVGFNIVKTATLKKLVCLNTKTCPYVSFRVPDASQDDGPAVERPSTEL

Row | SMILES | IC50 [1] [nM] | IC50 [2] [nM] | inhibition [3] [%] | inhibition [4] [%]
1 | COc1ccc2cc([C@H](C)NC(=O)NO)ccc2c1 | – | 7100 | 2 | 0
2 | CC(c1cc2ccccc2s1)N(O)C(N)=O (stereo not drawn) | – | – | 0 | 0
3 | CC(C)Cc1ccc(C(C)NC(=O)NO)cc1 (stereo not drawn) | – | 23000 | 0 | 51
4 | CC(C)Cc1ccc(C(C)N(O)C(N)=O)cc1 (stereo not drawn) | 600 | 2500 | 0 | 37
5 | COc1ccc2c(c1)c(CCN(O)C(N)=O)c(C)n2C(=O)c1ccc(Cl)cc1 | – | 6100 | 48 | 9

Now from value to molecule:

Row | IC50 [1] [nM] | IC50 [2] [nM] | inhibition [3] [%] | inhibition [4] [%] | SMILES
6 | 200 | 1000 | 88 | 64 | COc1ccc2c(c1)c(CNC(=O)N(C)O)c(C)n2C(=O)c1ccc(Cl)cc1
7 | 400 | 1600 | 0 | 0 | COc1ccc2cc([C@H](C)N(O)C(N)=O)ccc2c1

— ChEMBL document CHEMBL1129962, “Nonsteroidal anti-inflammatory drugs as scaffolds for the design of 5-lipoxygenase inhibitors” (J Med Chem, 1997)
